# From PMC4561207 (Child's nervous system : ChNS : official journal of the …, 2015)
# Experiment: Toxicities attributed to Cediranib
# Format: in vivo, human
smiles,measurement,setting,value
"COc1cc2c(Oc3ccc4[nH]c(C)cc4c3F)ncnc2cc1OCCCN1CCCC1 [cediranib, Cediranib]","diarrhea, number of patients",all grades,Thirty-two
same,"Abdominal pain, events (patients)",grade 1 TOX,5(5)
same,"Acidosis, events (patients)",grade 1 TOX,1(1)
same,"Alanine aminotransferase increased, events (patients)",grade 1 TOX,41(22)
same,"Alkaline phosphatase increased, events (patients)",grade 1 TOX,2(2)
same,"Anal mucositis, events (patients)",grade 1 TOX,1(1)
same,"Anal pain, events (patients)",grade 1 TOX,1(1)
same,"Anemia, events (patients)",grade 1 TOX,2(2)
same,"Anorexia, events (patients)",grade 1 TOX,8(8)
same,"Aspartate aminotransferase increased, events (patients)",grade 1 TOX,37(19)
same,"Back pain, events (patients)",grade 1 TOX,1(1)
same,"Blood bilirubin increased, events (patients)",grade 1 TOX,13(7)
same,"Bone pain, events (patients)",grade 1 TOX,1(1)
same,"Cardiac troponin I increased, events (patients)",grade 1 TOX,1(1)
same,"Cholesterol high, events (patients)",grade 1 TOX,1(1)
same,"Chronic kidney disease, events (patients)",grade 1 TOX,1(1)
same,"Constipation, events (patients)",grade 1 TOX,5(2)
same,"Cough, events (patients)",grade 1 TOX,1(1)
same,"Creatinine increased, events (patients)",grade 1 TOX,1(1)
same,"Dehydration, events (patients)",grade 1 TOX,1(1)
same,"Depression, events (patients)",grade 1 TOX,1(1)
same,"Diarrhea, events (patients)",grade 1 TOX,43(30)
same,"Dizziness, events (patients)",grade 1 TOX,3(3)
same,"Dry mouth, events (patients)",grade 1 TOX,1(1)
same,"Dry skin, events (patients)",grade 1 TOX,1(1)
same,"Dyspepsia, events (patients)",grade 1 TOX,3(3)
same,"Edema face, events (patients)",grade 1 TOX,1(1)
same,"Edema limbs, events (patients)",grade 1 TOX,1(1)
same,"Endocrine disorders - Other, specify, events (patients)",grade 1 TOX,1(1)
same,"Epistaxis, events (patients)",grade 1 TOX,5(4)
same,"Fatigue, events (patients)",grade 1 TOX,7(7)
same,"Fecal incontinence, events (patients)",grade 1 TOX,1(1)
same,"Fever, events (patients)",grade 1 TOX,1(1)
same,"GGT increased, events (patients)",grade 1 TOX,1(1)
same,"Gastritis, events (patients)",grade 1 TOX,1(1)
same,"Gastrointestinal disorders - Other, specify, events (patients)",grade 1 TOX,1(1)
same,"Headache, events (patients)",grade 1 TOX,5(4)
same,"Hematuria, events (patients)",grade 1 TOX,5(3)
same,"Hemoglobin increased, events (patients)",grade 1 TOX,6(2)
same,"Hoarseness, events (patients)",grade 1 TOX,1(1)
same,"Hypercalcemia, events (patients)",grade 1 TOX,3(2)
same,"Hyperglycemia, events (patients)",grade 1 TOX,7(6)
same,"Hyperkalemia, events (patients)",grade 1 TOX,2(2)
same,"Hypermagnesemia, events (patients)",grade 1 TOX,7(5)
same,"Hypernatremia, events (patients)",grade 1 TOX,5(4)
same,"Hypertension, events (patients)",grade 1 TOX,19(13)
same,"Hyperthyroidism, events (patients)",grade 1 TOX,2(2)
same,"Hypoalbuminemia, events (patients)",grade 1 TOX,20(13)
same,"Hypocalcemia, events (patients)",grade 1 TOX,16(8)
same,"Hypoglycemia, events (patients)",grade 1 TOX,2(2)
same,"Hypokalemia, events (patients)",grade 1 TOX,14(11)
same,"Hypomagnesemia, events (patients)",grade 1 TOX,6(4)
same,"Hyponatremia, events (patients)",grade 1 TOX,9(5)
same,"Hypophosphatemia, events (patients)",grade 1 TOX,10(8)
same,"Hypothyroidism, events (patients)",grade 1 TOX,10(10)
same,"INR increased, events (patients)",grade 1 TOX,1(1)
same,"Investigations - Other, specify, events (patients)",grade 1 TOX,2(2)
same,"Joint effusion, events (patients)",grade 1 TOX,1(1)
same,"Leukoencephalopathy, events (patients)",grade 1 TOX,1(1)
same,"Lymphocyte count decreased, events (patients)",grade 1 TOX,11(8)
same,"Malaise, events (patients)",grade 1 TOX,2(1)
same,"Mucositis oral, events (patients)",grade 1 TOX,1(1)
same,"Myalgia, events (patients)",grade 1 TOX,1(1)
same,"Nausea, events (patients)",grade 1 TOX,15(10)
same,"Neutrophil count decreased, events (patients)",grade 1 TOX,11(8)
same,"Non-cardiac chest pain, events (patients)",grade 1 TOX,1(1)
same,"Oral pain, events (patients)",grade 1 TOX,2(2)
same,"Pain in extremity, events (patients)",grade 1 TOX,3(3)
same,"Palmar-plantar erythrodysesthesia syndrome, events (patients)",grade 1 TOX,4(4)
same,"Platelet count decreased, events (patients)",grade 1 TOX,22(17)
same,"Proteinuria, events (patients)",grade 1 TOX,20(13)
same,"Rash acneiform, events (patients)",grade 1 TOX,2(2)
same,"Rash maculo-papular, events (patients)",grade 1 TOX,5(5)
same,"Rectal pain, events (patients)",grade 1 TOX,1(1)
same,"Renal and urinary disorders - Other, specify, events (patients)",grade 1 TOX,1(1)
same,"Serum amylase increased, events (patients)",grade 1 TOX,1(1)
same,"Skin and subcutaneous tissue disorders - Other, specify, events (patients)",grade 1 TOX,1(1)
same,"Stomach pain, events (patients)",grade 1 TOX,2(2)
same,"Urinary frequency, events (patients)",grade 1 TOX,1(1)
same,"Urinary retention, events (patients)",grade 1 TOX,1(1)
same,"Vascular disorders - Other, specify, events (patients)",grade 1 TOX,2(2)
same,"Voice alteration, events (patients)",grade 1 TOX,2(2)
same,"Vomiting, events (patients)",grade 1 TOX,23(12)
same,"Weight loss, events (patients)",grade 1 TOX,1(1)
same,"White blood cell decreased, events (patients)",grade 1 TOX,13(11)
same,"Abdominal pain, events (patients)",grade 2 TOX,5(5)
same,"Alanine aminotransferase increased, events (patients)",grade 2 TOX,17(9)
same,"Anorexia, events (patients)",grade 2 TOX,5(5)
same,"Arthralgia, events (patients)",grade 2 TOX,1(1)
same,"Aspartate aminotransferase increased, events (patients)",grade 2 TOX,4(4)
same,"Back pain, events (patients)",grade 2 TOX,1(1)
same,"Bone pain, events (patients)",grade 2 TOX,1(1)
same,"Constipation, events (patients)",grade 2 TOX,1(1)
same,"Dehydration, events (patients)",grade 2 TOX,1(1)
same,"Diarrhea, events (patients)",grade 2 TOX,16(11)
same,"Dizziness, events (patients)",grade 2 TOX,2(1)
same,"Fatigue, events (patients)",grade 2 TOX,9(9)
same,"Flushing, events (patients)",grade 2 TOX,3(1)
same,"Gastrointestinal disorders - Other, specify, events (patients)",grade 2 TOX,1(1)
same,"Headache, events (patients)",grade 2 TOX,3(3)
same,"Hyperglycemia, events (patients)",grade 2 TOX,2(2)
same,"Hypertension, events (patients)",grade 2 TOX,28(28)
same,"Hypoalbuminemia, events (patients)",grade 2 TOX,6(4)
same,"Hypocalcemia, events (patients)",grade 2 TOX,1(1)
same,"Hypoglycemia, events (patients)",grade 2 TOX,1(1)
same,"Hypomagnesemia, events (patients)",grade 2 TOX,1(1)
same,"Hypophosphatemia, events (patients)",grade 2 TOX,4(2)
same,"Hypothyroidism, events (patients)",grade 2 TOX,10(10)
same,"Hypoxia, events (patients)",grade 2 TOX,1(1)
same,"Intracranial hemorrhage, events (patients)",grade 2 TOX,4(4)
same,"Lipase increased, events (patients)",grade 2 TOX,1(1)
same,"Lymphocyte count decreased, events (patients)",grade 2 TOX,7(5)
same,"Mucositis oral, events (patients)",grade 2 TOX,2(2)
same,"Myalgia, events (patients)",grade 2 TOX,1(1)
same,"Nausea, events (patients)",grade 2 TOX,3(3)
same,"Neutrophil count decreased, events (patients)",grade 2 TOX,7(4)
same,"Pain in extremity, events (patients)",grade 2 TOX,1(1)
same,"Pain, events (patients)",grade 2 TOX,1(1)
same,"Palmar-plantar erythrodysesthesia syndrome, events (patients)",grade 2 TOX,10(7)
same,"Pericardial effusion, events (patients)",grade 2 TOX,1(1)
same,"Peripheral motor neuropathy, events (patients)",grade 2 TOX,1(1)
same,"Platelet count decreased, events (patients)",grade 2 TOX,3(3)
same,"Pleural effusion, events (patients)",grade 2 TOX,1(1)
same,"Proteinuria, events (patients)",grade 2 TOX,13(12)
same,"Respiratory, thoracic and mediastinal disorders - Other, specify, events (patients)",grade 2 TOX,1(1)
same,"Reversible posterior leukoencephalopathy syndrome, events (patients)",grade 2 TOX,1(1)
same,"Seizure, events (patients)",grade 2 TOX,1(1)
same,"Skin ulceration, events (patients)",grade 2 TOX,1(1)
same,"Vomiting, events (patients)",grade 2 TOX,3(3)
same,"Weight loss, events (patients)",grade 2 TOX,1(1)
same,"White blood cell decreased, events (patients)",grade 2 TOX,4(2)
same,"Alanine aminotransferase increased, events (patients)",grade 3 TOX,6(5)
same,"Anemia, events (patients)",grade 3 TOX,1(1)
same,"Aspartate aminotransferase increased, events (patients)",grade 3 TOX,1(1)
same,"Blurred vision, events (patients)",grade 3 TOX,1(1)
same,"Capillary leak syndrome, events (patients)",grade 3 TOX,1(1)
same,"Chest wall pain, events (patients)",grade 3 TOX,1(1)
same,"Confusion, events (patients)",grade 3 TOX,1(1)
same,"Dehydration, events (patients)",grade 3 TOX,2(2)
same,"Depressed level of consciousness, events (patients)",grade 3 TOX,1(1)
same,"Diarrhea, events (patients)",grade 3 TOX,2(2)
same,"Dysphasia, events (patients)",grade 3 TOX,1(1)
same,"Enterocolitis, events (patients)",grade 3 TOX,1(1)
